Measured values published in US20090311217A1, “3-SUBSTITUTED-1H-INDOLE COMPOUNDS, THEIR USE AS MTOR KINASE AND PI3 KINASE INHIBITORS, AND THEIR SYNTHESES” (priority 2008, published 2009).
pIC50: −log10 of the molar value.

Experiments:
PI3K-alpha = PI3K-alpha (Homo sapiens, UniProt P42336); assay: PI3K-alpha fluorescence polarization assay; assay type: biochemical; conditions: read-out: PI3Kα Avg. IC50
PI3K-gamma = PI3K-gamma (Homo sapiens, UniProt P48736); assay: PI3K-gamma fluorescence polarization assay; assay type: biochemical; conditions: PI3Kγ Avg. IC50
Procedure: PI3K-Alpha, PI3K-Beta, PI3K-Gamma, and PI3K-delta Fluorescence Polarization Assay Protocols
PI3-Kinase reactions were performed in 5 mM HEPES, pH 7, 2.5 mM MgCl2, and 25 μM ATP, with diC8-PI(4,5)P2 (Echelon, Salt Lake City Utah) as substrate. Nunc 384-well black polypropylene fluorescent plates were used for PI3K assays. Reactions were quenched by the addition of EDTA to a final concentration of 10 mM. Final reaction volumes were 10 μl. For evaluation of PI3K inhibitors, 5 ng of enzyme (PI3K-alpha, beta, gamma, or delta) and 2.5 μM of substrate was used per […] reaction volume, and inhibitor concentrations ranged from 100 μM to 20 μM; the final level of DMSO in reactions never exceeded 2%. Reactions were allowed to proceed for one hour at 25° C. After 1 hour, GST-tagged GRP1 (general receptor for phosphoinositides) PH domain fusion protein was added to a final concentration of 100 nM, and BODIPY-TMRI(1,3,4,5)P4 (Echelon) was also added to a final concentration of 5 nM. Final sample volumes were 25 μl with a final DMSO concentration of 0.8%. Assay Plates were read on Perkin-Elmer Envision plate readers with appropriate filters for Tamra [BODIPY-TMRI(1,3,4,5)P4]. Data obtained were used to calculate enzymatic activity and enzyme inhibition by inhibitor compounds.

PI3K-alpha, sequence (P42336 whole entry, species assumed): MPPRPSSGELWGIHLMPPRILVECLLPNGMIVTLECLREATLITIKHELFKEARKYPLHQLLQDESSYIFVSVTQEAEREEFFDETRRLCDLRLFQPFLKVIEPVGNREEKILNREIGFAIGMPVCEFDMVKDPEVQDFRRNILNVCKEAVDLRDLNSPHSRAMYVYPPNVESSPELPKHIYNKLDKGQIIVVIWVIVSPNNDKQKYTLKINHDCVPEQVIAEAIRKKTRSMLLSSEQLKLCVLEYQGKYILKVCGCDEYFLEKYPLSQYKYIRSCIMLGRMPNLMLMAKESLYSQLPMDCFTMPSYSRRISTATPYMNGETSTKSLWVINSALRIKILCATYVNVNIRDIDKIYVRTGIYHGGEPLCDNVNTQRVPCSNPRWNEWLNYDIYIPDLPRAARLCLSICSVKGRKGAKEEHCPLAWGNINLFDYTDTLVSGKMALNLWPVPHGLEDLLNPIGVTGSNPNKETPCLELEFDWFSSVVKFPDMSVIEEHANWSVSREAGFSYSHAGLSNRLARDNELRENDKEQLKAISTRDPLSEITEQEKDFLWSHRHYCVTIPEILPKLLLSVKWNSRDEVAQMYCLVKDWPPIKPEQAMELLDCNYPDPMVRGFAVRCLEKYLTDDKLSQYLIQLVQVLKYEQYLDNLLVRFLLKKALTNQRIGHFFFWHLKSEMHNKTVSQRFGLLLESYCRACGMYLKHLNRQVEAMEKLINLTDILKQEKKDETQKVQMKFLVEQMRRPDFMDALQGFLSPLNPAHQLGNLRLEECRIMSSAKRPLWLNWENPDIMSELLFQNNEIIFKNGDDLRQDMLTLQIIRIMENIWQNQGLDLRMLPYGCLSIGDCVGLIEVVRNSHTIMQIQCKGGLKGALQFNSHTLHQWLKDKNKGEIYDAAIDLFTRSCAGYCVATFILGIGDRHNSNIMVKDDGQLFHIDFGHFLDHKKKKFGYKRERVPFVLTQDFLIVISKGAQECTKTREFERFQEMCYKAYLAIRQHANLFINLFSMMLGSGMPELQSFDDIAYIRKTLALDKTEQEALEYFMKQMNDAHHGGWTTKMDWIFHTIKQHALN
PI3K-alpha, sequence (P27986 whole entry partner, species assumed): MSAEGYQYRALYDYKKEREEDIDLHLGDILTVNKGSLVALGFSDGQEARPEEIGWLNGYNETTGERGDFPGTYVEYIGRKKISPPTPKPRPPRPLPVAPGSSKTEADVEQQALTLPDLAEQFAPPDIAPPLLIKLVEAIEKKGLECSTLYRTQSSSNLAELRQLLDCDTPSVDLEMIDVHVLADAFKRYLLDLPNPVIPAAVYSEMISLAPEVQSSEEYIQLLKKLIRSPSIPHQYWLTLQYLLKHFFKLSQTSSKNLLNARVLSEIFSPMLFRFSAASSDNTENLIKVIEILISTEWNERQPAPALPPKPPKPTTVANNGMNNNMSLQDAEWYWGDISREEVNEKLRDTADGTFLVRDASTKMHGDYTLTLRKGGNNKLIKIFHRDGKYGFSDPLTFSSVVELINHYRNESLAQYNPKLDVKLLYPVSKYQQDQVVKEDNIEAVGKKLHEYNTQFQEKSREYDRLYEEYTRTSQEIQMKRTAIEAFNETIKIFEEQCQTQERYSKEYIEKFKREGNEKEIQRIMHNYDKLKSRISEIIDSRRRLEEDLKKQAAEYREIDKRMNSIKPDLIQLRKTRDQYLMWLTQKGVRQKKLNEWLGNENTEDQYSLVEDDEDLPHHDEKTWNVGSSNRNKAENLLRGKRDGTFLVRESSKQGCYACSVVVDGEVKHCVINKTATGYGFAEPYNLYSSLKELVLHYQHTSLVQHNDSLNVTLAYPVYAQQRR
PI3K-gamma, sequence (P48736 whole entry, species assumed): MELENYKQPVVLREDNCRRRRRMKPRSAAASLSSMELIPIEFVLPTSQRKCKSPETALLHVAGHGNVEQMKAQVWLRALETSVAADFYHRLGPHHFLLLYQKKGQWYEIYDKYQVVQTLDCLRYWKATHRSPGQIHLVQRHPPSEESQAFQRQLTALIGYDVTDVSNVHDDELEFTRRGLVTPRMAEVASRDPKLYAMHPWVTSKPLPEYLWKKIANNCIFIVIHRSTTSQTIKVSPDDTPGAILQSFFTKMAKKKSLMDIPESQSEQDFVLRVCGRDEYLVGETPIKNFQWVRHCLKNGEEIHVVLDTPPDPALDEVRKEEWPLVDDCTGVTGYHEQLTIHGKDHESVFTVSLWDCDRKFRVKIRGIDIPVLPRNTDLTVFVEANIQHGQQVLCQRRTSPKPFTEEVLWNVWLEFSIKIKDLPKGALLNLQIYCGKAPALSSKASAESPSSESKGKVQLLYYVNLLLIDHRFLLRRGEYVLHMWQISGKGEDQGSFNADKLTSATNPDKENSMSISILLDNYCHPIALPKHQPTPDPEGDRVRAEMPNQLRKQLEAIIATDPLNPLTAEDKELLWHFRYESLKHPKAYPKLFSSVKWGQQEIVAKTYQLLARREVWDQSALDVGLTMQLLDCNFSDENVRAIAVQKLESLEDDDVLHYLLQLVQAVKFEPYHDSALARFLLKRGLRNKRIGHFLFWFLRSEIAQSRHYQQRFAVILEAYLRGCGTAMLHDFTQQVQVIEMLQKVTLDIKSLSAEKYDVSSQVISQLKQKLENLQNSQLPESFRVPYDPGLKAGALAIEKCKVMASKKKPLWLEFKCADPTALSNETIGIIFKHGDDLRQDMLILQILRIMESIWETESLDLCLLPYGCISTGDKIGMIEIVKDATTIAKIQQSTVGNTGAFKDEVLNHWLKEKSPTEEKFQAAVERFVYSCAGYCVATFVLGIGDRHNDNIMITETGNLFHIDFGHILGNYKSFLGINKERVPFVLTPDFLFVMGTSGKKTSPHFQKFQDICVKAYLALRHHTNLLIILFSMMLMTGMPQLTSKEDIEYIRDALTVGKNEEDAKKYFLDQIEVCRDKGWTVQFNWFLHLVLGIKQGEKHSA

| SMILES | pIC50 (PI3K-alpha) | pIC50 (PI3K-gamma) |
| --- | --- | --- |
| COc1ccc2c(c1)c(/C=C1\Oc3ccc(O)cc3C1=O)c(C)n2CCN1CCN(C)CC1 [Compound 519] | 6.56 | 5.22 |
| Cn1c(-c2ccccc2)c(/C=C2\Oc3cc(O)cc(O)c3C2=O)c2c(N)cccc21 [Compound 521, (2Z)-2-[(4-amino-1-methyl-2-phenyl-1H-indol-3-yl)methylene]-4,6-dihydroxy-1-benzofuran-3(2H)-one] | 5.61 | 5.07 |
| COc1ccc2c(c1)c(/C=C1\Oc3ccc(NC(C)=O)cc3C1=O)cn2CCCN(C)C [Compound 525, N-[(2Z)-2-({1-[3-(dimethylamino)propyl]-5-methoxy-1H-indol-3-yl}methylene)-3-oxo-2,3-dihydro-1-benzofuran-5-yl]acetamide] | 5.89 | < 5.00 |
| Cn1cc(/C=C2\Oc3ccc(Br)cc3C2=O)c2c(-c3ccccc3)cccc21 [Compound 527, (2Z)-5-bromo-2-[(1-methyl-4-phenyl-1H-indol-3-yl)methylene]-1-benzofuran-3(2H)-one] | 5.52 | 5.42 |
| CNC(=O)Nc1ccc2c(c1)C(=O)/C(=C/c1cn(C)c3cccc(-c4ccccc4)c13)O2 [Compound 528, 1-methyl-3-{(2Z)-2-[(1-methyl-4-phenyl-1H-indol-3-yl)methylene]-3-oxo-2,3-dihydro-1-benzofuran-5-yl}urea] | < 5.00 | < 5.00 |
| Cn1cc(/C=C2\Oc3ccc(O)cc3C2=O)c2c(-c3ccccc3)cccc21 [Compound 530, (2Z)-5-hydroxy-2-[(1-methyl-4-phenyl-1H-indol-3-yl)methylene]-1-benzofuran-3(2H)-one] | < 5.00 | < 5.00 |
| Cn1cc(/C=C2\Oc3cc(O)cc(O)c3C2=O)c2c(-c3ccccc3)cccc21 [Compound 531, (2Z)-4,6-dihydroxy-2-[(1-methyl-4-phenyl-1H-indol-3-yl)methylene]-1-benzofuran-3(2H)-one] | 6.47 | 5.60 |
| Cn1cc(/C=C2\Oc3ccc(NC(=O)OC(C)(C)C)cc3C2=O)c2c(-c3ccccc3)cccc21 [Compound 532, tert-butyl {(2Z)-2-[(1-methyl-4-phenyl-1H-indol-3-yl)methylene]-3-oxo-2,3-dihydro-1-benzofuran-5-yl}carbamate] | < 5.00 | < 5.00 |
| CNC(=O)Nc1ccc2c(c1)C(=O)/C(=C/c1c(C3CCCCC3)n(CCN3CCN(C)CC3)c3ccc(OC)cc13)O2 [Compound 533, 1-[(2Z)-2-({2-cyclohexyl-5-methoxy-1-[2-(4-methylpiperazin-1-yl)ethyl]-1H-indol-3-yl}methylene)-3-oxo-2,3-dihydro-1-benzofuran-5-yl]-3-methylurea] | 8.66 | 6.41 |
| Cn1cc(/C=C2\Oc3ccc(N)cc3C2=O)c2c(-c3ccccc3)cccc21 [Compound 534, (2Z)-5-amino-2-[(1-methyl-4-phenyl-1H-indol-3-yl)methylene]-1-benzofuran-3(2H)-one] | 5.23 | 6.32 |
| Cn1cc(/C=C2\Oc3ccc(NC(=O)Nc4cccnc4)cc3C2=O)c2c(-c3ccccc3)cccc21 [Compound 535, 1-{(2Z)-2-[(1-methyl-4-phenyl-1H-indol-3-yl)methylene]-3-oxo-2,3-dihydro-1-benzofuran-5-yl}-3-pyridin-3-ylurea] | < 5.00 | < 5.00 |
| COc1ccc2c(c1)c(/C=C1\Oc3ccc(NC(N)=O)cc3C1=O)cn2CCCN(C)C [Compound 537, 1-[(2Z)-2-({1-[3-(dimethylamino)propyl]-5-methoxy-1H-indol-3-yl}methylene)-3-oxo-2,3-dihydro-1-benzofuran-5-yl]urea] | 6.38 | < 5.00 |
| COC(=O)Nc1ccc2c(c1)C(=O)/C(=C/c1cn(CCCN(C)C)c3ccc(OC)cc13)O2 [Compound 538, methyl [(2Z)-2-({1-[3-(dimethylamino)propyl]-5-methoxy-1H-indol-3-yl}methylene)-3-oxo-2,3-dihydro-1-benzofuran-5-yl]carbamate] | 6.09 | < 5.00 |
| CNC(=O)c1ccc2c(c1)C(=O)/C(=C/c1cn(CCCN(C)C)c3ccc(OC)cc13)O2 [Compound 539, (2Z)-2-({1-[3-(dimethylamino)propyl]-5-methoxy-1H-indol-3-yl}methylene)-Nmethyl-3-oxo-2,3-dihydro-1-benzofuran-5-carboxamide] | < 5.00 | < 5.00 |
| COc1ccc(NC(=O)Nc2ccc3c(c2)C(=O)/C(=C/c2cn(CCCN(C)C)c4ccc(OC)cc24)O3)cc1 [Compound 540, 1-[(2Z)-2-({1-[3-(dimethylamino)propyl]-5-methoxy-1H-indol-3-yl}methylene)-3-oxo-2,3-dihydro-1-benzofuran-5-yl]-3-(4-methoxyphenyl)urea] | 6.99 | 5.81 |
| COc1ccc2c(c1)c(/C=C1\Oc3ccc(CO)cc3C1=O)cn2CCN1CCN(C)CC1 [Compound 541, (2Z)-5-(hydroxymethyl)-2-({5-methoxy-1-[2-(4-methylpiperazin-1-yl)ethyl]-1Hindol-3-yl}methylene)-1-benzofuran-3(2H)-one] | 5.86 | 5.04 |
| CCNC(=O)Nc1ccc2c(c1)C(=O)/C(=C/c1cn(C)c3cccc(-c4ccccc4)c13)O2 [Compound 543, 1-ethyl-3-{(2Z)-2-[(1-methyl-4-phenyl-1H-indol-3-yl)methylidene]-3-oxo-2,3-dihydro-1-benzofuran-5-yl}urea] | < 5.00 | < 5.00 |
| COc1cc(/C=C/CN2CCN(C)CC2)c2[nH]cc(/C=C3\Oc4cc(O)ccc4C3=O)c2c1 [Compound 545, (2Z)-6-hydroxy-2-({5-methoxy-7-[(1E)-3-(4-methylpiperazin-1-yl)prop-1-en-1-yl]-1H-indol-3-yl}methylene)-1-benzofuran-3(2H)-one] | 7.39 | 5.91 |
| C#CCNC(=O)Nc1ccc2c(c1)C(=O)/C(=C/c1cn(CCN3CCN(C)CC3)c3ccc(OC)cc13)O2 [Compound 548, 1-[(2Z)-2-({5-methoxy-1-[2-(4-methylpiperazin-1-yl)ethyl]-1H-indol-3-yl}methylene)-3-oxo-2,3-dihydro-1-benzofuran-5-yl]-3-prop-2-yn-1-ylurea] | 7.19 | 5.55 |
| COc1ccc2c(c1)c(/C=C1\Oc3ccc(NC(=O)NCCN)cc3C1=O)cn2CCN1CCN(C)CC1 [Compound 549, 1-(2-aminoethyl)-3-[(2Z)-2-({5-methoxy-1-[2-(4-methylpiperazin-1-yl)ethyl]-1Hindol-3-yl}methylene)-3-oxo-2,3-dihydro-1-benzofuran-5-yl]urea] | 7.87 | 5.53 |

Now from value to compound:

| pIC50 (PI3K-alpha) | pIC50 (PI3K-gamma) | SMILES |
| --- | --- | --- |
| 6.35 | 5.94 | COc1ccc2[nH]cc(/C=C3\Oc4cc(O)cc(C(N)=O)c4C3=O)c2c1 [Compound 518, (2Z)-6-hydroxy-2-[(5-methoxy-1H-indol-3-yl)methylene]-3-oxo-2,3-dihydro-1-benzofuran-4-carboxamide] |
| 7.14 | 5.40 | CNC(=O)Nc1ccc2c(c1)C(=O)/C(=C/c1cn(CCCN(C)C)c3ccc(OC)cc13)O2 [Compound 520, 1-[(2Z)-2-({1-[3-(dimethylamino)propyl]-5-methoxy-1H-indol-3-yl}methylene)-3-oxo-2,3-dihydro-1-benzofuran-5-yl]-3-methylurea] |
| < 5.00 | < 5.00 | COc1ccc2[nH]cc(/C=C3\Oc4ccc(Br)cc4C3=O)c2c1 [Compound 522, (2Z)-5-bromo-2-[(5-methoxy-1H-indol-3-yl)methylene]-1-benzofuran-3(2H)-one] |
| < 5.00 | < 5.00 | COc1ccc2[nH]cc(/C=C3\Oc4ccc(C#N)cc4C3=O)c2c1 [Compound 523, (2Z)-2-[(5-methoxy-1H-indol-3-yl)methylene]-3-oxo-2,3-dihydro-1-benzofuran-5-carbonitrile] |
| 4.92 | < 5.00 | COc1ccc2[nH]cc(/C=C3\Oc4ccc(-c5nnn[nH]5)cc4C3=O)c2c1 [Compound 524, (2Z)-2-[(5-methoxy-1H-indol-3-yl)methylene]-5-(1H-tetrazol-5-yl)-1-benzofuran-3(2H)-one] |
| 5.21 | < 5.00 | CNC(=O)Nc1cc(O)cc2c1C(=O)/C(=C/c1c[nH]c3ccc(OC)cc13)O2 [Compound 526, 1-{(2Z)-6-hydroxy-2-[(5-methoxy-1H-indol-3-yl)methylene]-3-oxo-2,3-dihydro-1-benzofuran-4-yl}-3-methylurea] |
| 6.65 | 5.09 | COc1ccc2[nH]cc(/C=C3\Oc4cc(O)c(O)cc4C3=O)c2c1 [Compound 529, (2Z)-5,6-dihydroxy-2-[(5-methoxy-1H-indol-3-yl)methylene]-1-benzofuran-3(2H)-one] |
| 7.23 | 6.26 | CNC(=O)Nc1ccc2c(c1)C(=O)/C(=C/c1c[nH]c3ccc(OC)cc13)O2 [Compound 536, 1-{(2Z)-2-[(5-methoxy-1H-indol-3-yl)methylene]-3-oxo-2,3-dihydro-1-benzofuran-5-yl}-3-methylurea] |
| 7.20 | 5.67 | CCNC(=O)Nc1ccc2c(c1)C(=O)/C(=C/c1cn(CCCN(C)C)c3ccc(OC)cc13)O2 [Compound 547, 1-[(2Z)-2-({1-[3-(dimethylamino)propyl]-5-methoxy-1H-indol-3-yl}methylene)-3-oxo-2,3-dihydro-1-benzofuran-5-yl]-3-ethylurea] |
